Consider one compound from patent US9187491B2, “Gambogenic acid derivatives, preparation method and application thereof” (Ninth People's Hospital, School Medicine Shanghai Jiao Tong …, priority 2012, dated 2015).

Molecules are shown by their SMILES.

The subject of test [1] is mouse leukemia L1210. The settings on record: compared with garcinia acid; cited from earlier work.
Test [2] deals with Human breast cancer cells MCF-7. Description: growth inhibition of tumor cell MCF-7 (MTT colorimetric method). Format: cell-based. The source says: (§1) The compounds synthesized from the present invention were studied by sulforhodamine B protein staining (sulfothodalnine B, SRB) and miceroculture tetrazolinetetrozohuln (MTT) colorimetric method respectively for in vitro anti-tumor activity (Cancer Res., 1988, 48 (3): 589).
(§2) The concentration gradient of the test compounds of the present invention is 10^−4M, 10^−5M, 10^−6M, 10^−7M, 10^−8M, and the test compounds are 6-methoxy methyl ester gambogenic acid, ethyl ester gambogenic acid, 6-ethoxy ethyl ester gambogenic acid, 6-acyl gambogenic acid, piperidine gambogenic acid, diethylamide gambogenic acyl, morpholine gambogenic acid, and 12-hydroxy gambogenic acid, and 8,9-epoxy gambogenic acid. The test compounds and positive control gambogenic acid were diluted with dimethyl sulfoxide. Inhibition rate(%)=[(control group OD value−administered group OD value)/control group OD value]×100%
Human breast cancer cells MCF-7 were cultured in DMEM containing 10% FBS, the cell with long-growth phase was formed into suspension and cultured in 96-well plates. The test compounds as experimental group with different concentrations were added into each well of the 96-well plates. Blank control group received an equal volume containing the highest concentration of solvent (ie, 10^−4M dimethyl sulfoxide) in DMEM. After incubation at 37° C. under 5% carbon dioxide conditions for 72 hours, each well was added with MTT to 1 mg/ml final concentration for incubation for 4 hours. The supernatant solution in each well was aspirated and added with 200 μl DMSO to dissolve crystals, and then OD values were measured at 490 nm by an automatic plate reader spectrophotometer. A tumor cell group without drugs is a blank control group.
(Formazan colour is commonly taken as a measure of viable cells.)

In test [3] the test system is Human oral squamous cells carcinoma Cal27. Description: growth inhibition of tumor cell Cal27 (SRB staining). Format: cell-based.
From the text: as §1, §2
Human oral squamous cells carcinoma Cal27 were cultured in DMEM containing 10% fetal bovine serum (FBS), the cells with long-growth phase were forming suspension and culturing in 96-well plates. 10 μl test compounds of different concentrations as experimental group were added into each well of the 96-well plates. Blank control group received an equal volume containing the highest concentration of solvent (ie, 10^−4M dimethyl sulfoxide) in DMEM. After incubation at 37° C. under 5% carbon dioxide conditions for 72 hours, the cells were fixed with trichloroacetic acid, and each well was added with 100 μl SRB solution, unbound SRB was washed away, and then OD values were measured at 550 nm by an automatic plate reader spectrophotometer. A tumor cell group without drugs is a blank control group.
Background: The SRB assay estimates cell density from bound dye.

[4] abbreviates: Homo sapiens, MCF7, 72 h, read-out: growth inhibition rate.
[5] abbreviates: Homo sapiens, CAL-27, 72 h, read-out: growth inhibition rate.

In general, inhibition refers to how much of the control response was suppressed. Regarding `CC(C)=CCC/C(C)=C/Cc1c(O)c(CC=C(C)C)c2c(c1O)C(=O)C1=CC3CC4C(C)(C)OC(C/C=C(/C)C(=O)O)(C3=O)C14O2` (stereo not shown) [gambogenic acid, Gambogenic acid], the “highest survival rate extended, relative to garcinia acid” value in test [1] is reported as “up to 2.45 times”. For the same compound, in test [2] (setting [4]), the inhibition at 0.01 µM was 0%, the inhibition at 0.1 µM was 0%, the inhibition at 1 µM amounted to 0% and the inhibition at 10 µM came to 100%. Further, in test [2] (setting [4]), the inhibition at 100 µM is 100%. Also, the efficacy entry in test [2] (MCF-7, assessment of results) was “invalid (Invalid: 10^−5M inhibition rate<85%)”. The efficacy result in test [3] (Cal27, assessment of results) is reported as “invalid (Invalid: 10^−5M inhibition rate<85%)”. For the same compound, in test [3] (setting [5]), the inhibition at 0.01 µM came out at 0%, the inhibition at 0.1 µM worked out at 0%, the inhibition at 1 µM was 5% and the inhibition at 10 µM turned out to be 100%. Moreover, the inhibition at 100 µM in test [3] (setting [5]) was found to be 100%.
